Data published in patent US12227500B2, “Substituted pyrrolo[2,3-b]pyridines for suppressing toxic endoplasmic reticulum stress” (THE TRUSTEES OF COLUMBIA UNIVERSITY IN THE CITY OF NEW YORK, priority 2018, dated 2025).
Where two headings read alike, the source gives them in different places.

What was measured:
Assay in all cases: Radiolabeled ATP kinase assay, panel of 371 kinases (Table S6)
Assay type in all cases: biochemical
[1] = target: T1, panel of 371 human kinases (Homo sapiens, UniProt O75116); details: ROCK2; 0.1 μM; 10 μM ATP; read-out: % Enzyme Activity (relative to DMSO controls)
T1 construct: purchased Reaction Biology Corp
Text: (§1) ; FIG. 38C). […]. Further targeted analyses, such as genetic knock-down or knock-out, may be warranted to parse the role of these additional kinases in our model of neurodegeneration.

[2] = target: T2, panel of 371 human kinases (Homo sapiens, UniProt P08069); details: IGF1R; 0.1 μM; 10 μM ATP; read-out: % Enzyme Activity (relative to DMSO controls)
T2 construct: purchased Reaction Biology Corp
Text: as §1

[3] = target: T3, panel of 371 human kinases (Homo sapiens, UniProt P21709); details: EPHA1; 0.1 μM; 10 μM ATP; read-out: % Enzyme Activity (relative to DMSO controls)
T3 construct: purchased Reaction Biology Corp
Text: as §1

[4] = target: T4, panel of 371 human kinases (Homo sapiens, UniProt P23458); details: JAK1; 0.1 μM; 10 μM ATP; read-out: % Enzyme Activity (relative to DMSO controls)
T4 construct: purchased Reaction Biology Corp
Text: as §1

[5] = target: T5, panel of 371 human kinases (Homo sapiens, UniProt P25098); details: GRK2; 0.1 μM; 10 μM ATP; read-out: % Enzyme Activity (relative to DMSO controls)
T5 construct: purchased Reaction Biology Corp
Text: as §1

[6] = target: T6, panel of 371 human kinases (Homo sapiens, UniProt P35916); details: FLT4/VEGFR3; 0.1 μM; 10 μM ATP; read-out: % Enzyme Activity (relative to DMSO controls)
T6 construct: purchased Reaction Biology Corp
Text: as §1

[7] = target: T7, panel of 371 human kinases (Homo sapiens, UniProt P36897); details: ALK5/TGFBR1; 0.1 μM; 10 μM ATP; read-out: % Enzyme Activity (relative to DMSO controls)
T7 construct: purchased Reaction Biology Corp
Text: as §1

[8] = target: T8, panel of 371 human kinases (Homo sapiens, UniProt Q00526); details: 0.1 μM, 10 μM ATP, read-out: % Enzyme Activity (relative to DMSO controls)
T8 construct: purchased Reaction Biology Corp
Text: as §1

[9] = target: T9, panel of 371 human kinases (Homo sapiens, UniProt Q00535); details: 0.1 μM, 10 μM ATP, read-out: % Enzyme Activity (relative to DMSO controls)
T9 construct: purchased Reaction Biology Corp
Text: as §1

[10] = target: T10, panel of 371 human kinases (Homo sapiens, UniProt Q04912); details: RON/MST1R; 0.1 μM; 10 μM ATP; read-out: % Enzyme Activity (relative to DMSO controls)
T10 construct: purchased Reaction Biology Corp
Text: as §1

[11] = target: T11, panel of 371 human kinases (Homo sapiens, UniProt Q09013); details: DMPK; 0.1 μM; 10 μM ATP; read-out: % Enzyme Activity (relative to DMSO controls)
T11 construct: purchased Reaction Biology Corp
Text: as §1

[12] = target: T12, panel of 371 human kinases (Homo sapiens, UniProt Q12851); details: for remaining activity at 0.1 µM: GCK/MAP4K2, 10 μM ATP, read-out: % Enzyme Activity (relative to DMSO controls)
T12 construct: purchased Reaction Biology Corp
T12 sequence (Q12851 1-820): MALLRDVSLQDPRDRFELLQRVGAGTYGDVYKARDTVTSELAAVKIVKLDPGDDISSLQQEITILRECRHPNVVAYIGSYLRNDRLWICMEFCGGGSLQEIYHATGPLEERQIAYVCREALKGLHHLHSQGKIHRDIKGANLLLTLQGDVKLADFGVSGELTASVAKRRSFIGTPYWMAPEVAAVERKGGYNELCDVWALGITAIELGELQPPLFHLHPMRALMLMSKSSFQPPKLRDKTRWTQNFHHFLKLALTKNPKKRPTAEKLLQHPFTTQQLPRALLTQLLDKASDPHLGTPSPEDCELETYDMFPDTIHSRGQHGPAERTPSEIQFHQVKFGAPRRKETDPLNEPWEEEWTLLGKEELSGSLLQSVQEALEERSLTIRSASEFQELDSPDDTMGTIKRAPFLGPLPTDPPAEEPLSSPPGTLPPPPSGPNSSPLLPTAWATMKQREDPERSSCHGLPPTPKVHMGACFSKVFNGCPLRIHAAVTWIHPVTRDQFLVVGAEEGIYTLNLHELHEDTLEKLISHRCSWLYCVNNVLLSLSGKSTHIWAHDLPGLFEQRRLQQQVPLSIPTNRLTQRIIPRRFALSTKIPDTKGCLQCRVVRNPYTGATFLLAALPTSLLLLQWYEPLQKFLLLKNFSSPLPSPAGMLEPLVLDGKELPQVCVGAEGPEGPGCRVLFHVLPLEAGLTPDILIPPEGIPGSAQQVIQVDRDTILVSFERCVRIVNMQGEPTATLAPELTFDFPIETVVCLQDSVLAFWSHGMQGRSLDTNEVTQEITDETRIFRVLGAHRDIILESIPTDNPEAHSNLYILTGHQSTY
Text: as §1

[13] = target: T13, panel of 371 human kinases (Homo sapiens, UniProt Q12852); details: DLK/MAP3K12; 0.1 μM; 10 μM ATP; read-out: % Enzyme Activity (relative to DMSO controls)
T13 construct: purchased Reaction Biology Corp
Text: as §1

[14] = target: T14, panel of 371 human kinases (Homo sapiens, UniProt Q12866); details: c-MER; 0.1 μM; 10 μM ATP; read-out: % Enzyme Activity (relative to DMSO controls)
T14 construct: purchased Reaction Biology Corp
Text: as §1

[15] = target: T15, panel of 371 human kinases (Homo sapiens, UniProt Q15418); details: RSK1; 0.1 μM; 10 μM ATP; read-out: % Enzyme Activity (relative to DMSO controls)
T15 construct: purchased Reaction Biology Corp
Text: as §1

[16] = target: T16, panel of 371 human kinases (Homo sapiens, UniProt Q15831); details: LKB1; 0.1 μM; 10 μM ATP; read-out: % Enzyme Activity (relative to DMSO controls)
T16 construct: purchased Reaction Biology Corp
Text: as §1

[17] = target: T17, panel of 371 human kinases (Homo sapiens, UniProt Q8IYT8); details: ULK2; 0.1 μM; 10 μM ATP; read-out: % Enzyme Activity (relative to DMSO controls)
T17 construct: purchased Reaction Biology Corp
Text: as §1

[18] = target: T18, panel of 371 human kinases (Homo sapiens, UniProt Q9UKI8); details: TLK1; 0.1 μM; 10 μM ATP; read-out: % Enzyme Activity (relative to DMSO controls)
T18 construct: purchased Reaction Biology Corp
Text: as §1

T8 sequence (Q00526 whole entry): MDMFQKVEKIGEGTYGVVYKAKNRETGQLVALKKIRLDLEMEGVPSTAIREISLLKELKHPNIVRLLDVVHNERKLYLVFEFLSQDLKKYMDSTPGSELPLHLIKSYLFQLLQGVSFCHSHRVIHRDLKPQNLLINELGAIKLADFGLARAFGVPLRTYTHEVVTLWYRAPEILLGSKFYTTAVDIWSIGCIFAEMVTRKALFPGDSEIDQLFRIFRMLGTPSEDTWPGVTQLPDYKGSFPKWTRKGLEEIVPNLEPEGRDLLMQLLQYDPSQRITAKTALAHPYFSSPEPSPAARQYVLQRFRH
T9 sequence (Q00535 whole entry): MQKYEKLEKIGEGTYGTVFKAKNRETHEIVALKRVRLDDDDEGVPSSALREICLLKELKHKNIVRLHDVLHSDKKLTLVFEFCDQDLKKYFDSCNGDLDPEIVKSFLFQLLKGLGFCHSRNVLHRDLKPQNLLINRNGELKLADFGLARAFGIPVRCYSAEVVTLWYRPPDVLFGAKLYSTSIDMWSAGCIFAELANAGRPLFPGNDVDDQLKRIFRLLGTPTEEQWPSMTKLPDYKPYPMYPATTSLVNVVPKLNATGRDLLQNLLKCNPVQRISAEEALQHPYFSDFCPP
T14 sequence (Q12866 21-999): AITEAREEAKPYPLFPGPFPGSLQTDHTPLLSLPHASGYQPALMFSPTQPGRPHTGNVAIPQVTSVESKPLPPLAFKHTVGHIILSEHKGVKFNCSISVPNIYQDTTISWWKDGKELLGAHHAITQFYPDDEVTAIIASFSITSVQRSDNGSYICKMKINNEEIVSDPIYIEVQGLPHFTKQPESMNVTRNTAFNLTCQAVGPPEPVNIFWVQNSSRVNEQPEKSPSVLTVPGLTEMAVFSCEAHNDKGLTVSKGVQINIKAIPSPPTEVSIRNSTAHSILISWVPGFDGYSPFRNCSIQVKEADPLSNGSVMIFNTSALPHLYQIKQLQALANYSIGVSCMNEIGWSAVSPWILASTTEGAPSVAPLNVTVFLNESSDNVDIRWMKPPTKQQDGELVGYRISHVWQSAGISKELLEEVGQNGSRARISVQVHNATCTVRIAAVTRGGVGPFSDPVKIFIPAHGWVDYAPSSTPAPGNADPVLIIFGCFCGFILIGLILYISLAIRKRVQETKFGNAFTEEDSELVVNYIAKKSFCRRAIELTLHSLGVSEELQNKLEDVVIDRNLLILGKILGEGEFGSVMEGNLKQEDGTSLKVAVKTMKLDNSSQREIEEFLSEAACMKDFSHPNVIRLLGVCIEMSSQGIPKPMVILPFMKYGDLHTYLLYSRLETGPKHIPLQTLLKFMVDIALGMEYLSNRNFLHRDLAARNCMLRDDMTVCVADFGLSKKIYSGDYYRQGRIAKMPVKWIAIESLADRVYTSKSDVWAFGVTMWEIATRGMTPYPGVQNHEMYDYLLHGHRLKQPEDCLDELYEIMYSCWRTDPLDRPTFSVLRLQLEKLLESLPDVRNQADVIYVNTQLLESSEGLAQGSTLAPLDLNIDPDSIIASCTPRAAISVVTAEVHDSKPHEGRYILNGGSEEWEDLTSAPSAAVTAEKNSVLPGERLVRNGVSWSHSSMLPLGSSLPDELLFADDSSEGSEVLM
T17 sequence (Q8IYT8 whole entry): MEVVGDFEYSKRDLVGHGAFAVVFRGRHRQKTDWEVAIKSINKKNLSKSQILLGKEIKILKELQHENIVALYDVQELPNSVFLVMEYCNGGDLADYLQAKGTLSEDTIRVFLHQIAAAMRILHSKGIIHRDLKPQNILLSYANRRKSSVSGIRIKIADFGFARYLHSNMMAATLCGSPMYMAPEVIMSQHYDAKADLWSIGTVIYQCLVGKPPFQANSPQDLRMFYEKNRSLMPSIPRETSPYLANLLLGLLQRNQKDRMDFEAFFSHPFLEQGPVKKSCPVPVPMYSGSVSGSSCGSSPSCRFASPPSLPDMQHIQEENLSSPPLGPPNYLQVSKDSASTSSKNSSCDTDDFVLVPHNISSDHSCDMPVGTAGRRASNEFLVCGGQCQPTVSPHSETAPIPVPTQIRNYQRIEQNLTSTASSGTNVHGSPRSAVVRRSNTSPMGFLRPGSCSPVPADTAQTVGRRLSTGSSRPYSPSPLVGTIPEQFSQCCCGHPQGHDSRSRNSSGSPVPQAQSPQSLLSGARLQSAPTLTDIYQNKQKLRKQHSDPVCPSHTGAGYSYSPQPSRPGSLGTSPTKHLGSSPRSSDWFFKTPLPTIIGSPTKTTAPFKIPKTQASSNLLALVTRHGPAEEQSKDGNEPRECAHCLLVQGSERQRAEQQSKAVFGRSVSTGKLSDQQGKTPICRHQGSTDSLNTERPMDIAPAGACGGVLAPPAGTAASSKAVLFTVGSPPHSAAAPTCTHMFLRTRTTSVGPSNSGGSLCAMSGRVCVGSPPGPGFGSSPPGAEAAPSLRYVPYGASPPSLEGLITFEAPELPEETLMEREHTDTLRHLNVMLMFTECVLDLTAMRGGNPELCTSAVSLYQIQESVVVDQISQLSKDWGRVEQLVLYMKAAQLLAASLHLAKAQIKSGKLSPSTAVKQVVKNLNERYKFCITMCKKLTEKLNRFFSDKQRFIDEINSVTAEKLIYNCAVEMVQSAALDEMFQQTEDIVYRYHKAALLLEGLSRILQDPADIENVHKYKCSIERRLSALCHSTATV
T5 sequence (P25098 whole entry): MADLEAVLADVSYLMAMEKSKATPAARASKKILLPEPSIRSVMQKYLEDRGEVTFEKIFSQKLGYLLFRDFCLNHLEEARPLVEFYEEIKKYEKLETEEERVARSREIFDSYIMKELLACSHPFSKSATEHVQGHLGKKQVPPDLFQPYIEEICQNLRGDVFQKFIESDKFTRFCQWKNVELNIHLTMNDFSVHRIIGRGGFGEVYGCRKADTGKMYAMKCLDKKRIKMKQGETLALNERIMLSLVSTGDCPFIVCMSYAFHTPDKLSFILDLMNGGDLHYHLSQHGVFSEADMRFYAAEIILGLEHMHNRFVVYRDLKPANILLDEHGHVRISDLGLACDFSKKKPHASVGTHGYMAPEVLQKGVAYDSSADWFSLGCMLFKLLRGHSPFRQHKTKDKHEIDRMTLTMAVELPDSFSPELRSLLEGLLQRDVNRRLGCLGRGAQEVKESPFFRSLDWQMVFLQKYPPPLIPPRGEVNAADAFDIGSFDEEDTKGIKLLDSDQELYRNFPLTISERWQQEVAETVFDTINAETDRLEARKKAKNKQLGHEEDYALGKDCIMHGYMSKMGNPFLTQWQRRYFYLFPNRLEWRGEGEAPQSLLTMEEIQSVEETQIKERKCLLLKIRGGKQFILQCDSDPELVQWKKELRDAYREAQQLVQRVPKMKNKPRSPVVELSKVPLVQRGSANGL
T10 sequence (Q04912 25-1400): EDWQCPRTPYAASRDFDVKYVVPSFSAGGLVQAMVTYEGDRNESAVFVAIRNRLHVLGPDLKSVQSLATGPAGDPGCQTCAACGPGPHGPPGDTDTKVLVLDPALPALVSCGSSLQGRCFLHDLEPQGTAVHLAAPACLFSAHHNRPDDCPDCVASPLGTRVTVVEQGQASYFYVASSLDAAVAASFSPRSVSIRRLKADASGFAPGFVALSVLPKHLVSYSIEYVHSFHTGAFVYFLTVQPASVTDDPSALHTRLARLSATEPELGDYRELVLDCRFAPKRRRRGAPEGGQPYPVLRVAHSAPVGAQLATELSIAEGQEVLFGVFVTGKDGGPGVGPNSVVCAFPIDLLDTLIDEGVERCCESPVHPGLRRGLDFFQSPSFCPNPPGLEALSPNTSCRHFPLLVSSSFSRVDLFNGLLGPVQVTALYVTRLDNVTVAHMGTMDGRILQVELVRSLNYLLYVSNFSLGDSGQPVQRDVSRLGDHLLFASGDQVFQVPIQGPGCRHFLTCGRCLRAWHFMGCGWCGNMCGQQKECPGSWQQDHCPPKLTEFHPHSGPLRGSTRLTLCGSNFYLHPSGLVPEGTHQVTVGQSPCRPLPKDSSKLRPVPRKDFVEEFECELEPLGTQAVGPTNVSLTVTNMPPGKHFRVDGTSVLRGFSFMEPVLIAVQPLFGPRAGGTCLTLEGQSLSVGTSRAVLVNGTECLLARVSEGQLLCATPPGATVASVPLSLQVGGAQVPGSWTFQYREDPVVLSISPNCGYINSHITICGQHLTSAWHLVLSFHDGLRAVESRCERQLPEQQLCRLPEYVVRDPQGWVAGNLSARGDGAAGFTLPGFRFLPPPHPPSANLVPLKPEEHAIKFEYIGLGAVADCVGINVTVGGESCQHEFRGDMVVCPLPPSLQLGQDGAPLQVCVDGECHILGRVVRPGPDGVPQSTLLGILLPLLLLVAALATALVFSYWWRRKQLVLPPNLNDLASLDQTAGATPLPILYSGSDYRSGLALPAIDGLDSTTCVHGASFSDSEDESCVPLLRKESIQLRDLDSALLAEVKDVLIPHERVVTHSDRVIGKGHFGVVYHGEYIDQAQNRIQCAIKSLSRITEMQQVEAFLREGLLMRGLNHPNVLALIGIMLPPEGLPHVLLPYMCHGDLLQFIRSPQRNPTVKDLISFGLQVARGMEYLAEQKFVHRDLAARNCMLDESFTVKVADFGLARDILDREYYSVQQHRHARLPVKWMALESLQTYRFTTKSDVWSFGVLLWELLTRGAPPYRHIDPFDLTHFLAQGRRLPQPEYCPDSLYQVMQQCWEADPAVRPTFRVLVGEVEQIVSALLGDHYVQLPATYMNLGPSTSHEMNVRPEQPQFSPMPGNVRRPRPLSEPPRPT

| Structure (SMILES) | remaining activity at 0.1 µM [1] | remaining activity at 0.1 µM [2] | remaining activity at 0.1 µM [3] | remaining activity at 0.1 µM [4] | remaining activity at 0.1 µM [5] | remaining activity at 0.1 µM [6] | remaining activity at 0.1 µM [7] | remaining activity at 0.1 µM ([8]; CDK3/cyclin E2) | remaining activity at 0.1 µM ([8]; CDK3/cyclin E) | remaining activity at 0.1 µM ([9]; CDK5/p25) | remaining activity at 0.1 µM ([9]; CDK5/p35) | remaining activity at 0.1 µM [10] | remaining activity at 0.1 µM [11] | remaining activity at 0.1 µM [12] | remaining activity at 0.1 µM [13] | remaining activity at 0.1 µM [14] | remaining activity at 0.1 µM [15] | remaining activity at 0.1 µM [16] | remaining activity at 0.1 µM [17] | remaining activity at 0.1 µM [18] | further results |
| --- | --- | --- | --- | --- | --- | --- | --- | --- | --- | --- | --- | --- | --- | --- | --- | --- | --- | --- | --- | --- | --- |
| CN1CCN(Cc2ccc(-c3cnc4[nH]cc(-c5ccc6[nH]ccc6c5)c4c3)cc2)CC1 [Compound 1, 3-(1H-Indol-5-yl)-5-(4-((4-methylpiperazin-1-yl)methyl)phenyl)-1H-pyrrolo[2,3-b]pyridine, reference compound] | 71.1% | 95.4% | 74.2% | 103% | 94% | 81.7% | 97.6% | 92.6% | 92.9% | 79.7% | 81.3% | 91.6% | 96.6% | 63.6% | 90.8% | 81.2% | 85.4% | 101% | 80.4% | 102% | – |
| OCCN1CCN(Cc2ccc(-c3cnc4[nH]cc(-c5cccc(Cl)c5)c4c3)cc2)CC1 [Compound 12k, 2-(4-(4-(3-(3-Chlorophenyl)-1H-pyrrolo[2,3-b]pyridin-5-yl)benzyl)piperazin-1-yl)ethan-1-ol] | 55.6% | 95.4% | 89.4% | 90.5% | 96.3% | 85.8% | 98.5% | 90.2% | 97% | 75.9% | 79.2% | 94.1% | 97.7% | 10.2% | 82.8% | 75.1% | 90% | 78.7% | 36% | 102% | fold change in GCK activity following 12k exposure relative to 1 ([12]; 0.025 μM): 6.22 fold |
